Series [1] has as its system K262R. The series is classed as biochemical, human. Particulars: type II inhibitors; Supporting table 1.
Series [2] addresses T1, CYP2B6dH (Homo sapiens, UniProt P20813).
T1 sequence (P20813 with tags, fused parts or gaps limits assumed): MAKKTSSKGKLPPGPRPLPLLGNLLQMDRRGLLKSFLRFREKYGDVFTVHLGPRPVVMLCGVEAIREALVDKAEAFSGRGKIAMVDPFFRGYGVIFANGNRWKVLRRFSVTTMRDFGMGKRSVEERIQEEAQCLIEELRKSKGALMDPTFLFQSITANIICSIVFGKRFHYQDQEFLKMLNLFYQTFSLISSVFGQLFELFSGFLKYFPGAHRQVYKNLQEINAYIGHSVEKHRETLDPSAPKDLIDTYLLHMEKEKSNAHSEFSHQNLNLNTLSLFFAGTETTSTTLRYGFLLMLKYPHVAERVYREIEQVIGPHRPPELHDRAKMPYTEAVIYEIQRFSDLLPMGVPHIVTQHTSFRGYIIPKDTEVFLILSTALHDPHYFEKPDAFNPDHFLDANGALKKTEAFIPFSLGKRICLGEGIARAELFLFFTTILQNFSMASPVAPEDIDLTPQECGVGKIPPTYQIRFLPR

Series [3] concerns the target T2, Q172H/K262R (2B6*6) (Homo sapiens, UniProt P20813, K262R/Q172H).
T2 sequence (P20813 with tags, fused parts or gaps Q172H/K262R limits assumed): T1 sequence (P20813 with tags, fused parts or gaps limits assumed) with Q153H, K243R

The target in series [4] is T1, CYP2B6dH. Kind of series: 7-MFC O-deethylation inhibition in standard reconstitution system. Particulars: pH 7.4.
For another series, the target named is T3, CYP2B6 K262R (2B6*4) (Homo sapiens, UniProt P20813, K262R).
T3 sequence (P20813 with tags, fused parts or gaps K262R limits assumed): T1 sequence (P20813 with tags, fused parts or gaps limits assumed) with K243R
The description is as above. As to conditions: human, pH 7.4.

In series [5] the target is T4, K262R (2B6*4) (Homo sapiens, UniProt P20813, K262R).
T4 sequence (P20813 with tags, fused parts or gaps K262R limits assumed): T1 sequence (P20813 with tags, fused parts or gaps limits assumed) with K243R
The description is as above. As to conditions: for Increase in Ki, K262R compared with CYP2B6dH: 7-MFC O-deethylation.

The target in series [6] is T5, CYP2B6 Q172H/K262R (2B6*6) (Homo sapiens, UniProt P20813, K262R/Q172H).
T5 sequence (P20813 with tags, fused parts or gaps Q172H/K262R limits assumed): T1 sequence (P20813 with tags, fused parts or gaps limits assumed) with Q153H, K243R
The description is as above. As to conditions: human, pH 7.4.

Series [7] addresses T2, Q172H/K262R (2B6*6). The description is as above. As to conditions: for Increase in Ki, Q172H/K262R compared with CYP2B6dH: 7-MFC O-deethylation; for Ki: Ki (Q172H/K262R), 7-MFC 25, 50, 100, 150 μM, global fit, duplicate.
The test system of series [8] is K262R. As to conditions: in contrast to CYP2B6dH, ref Bumpus et al., 2005, 2006; cited from earlier work.
Series [9] concerns K262R. Set-up: species or system human.
For series [10] the following is noted: read-out: Estimated in vivo Cmax; plasma, normal population; used as [I]; ref www.mentalhealth.com, www.medscape.com, www.pharmgkb.org, Burgess and Bodey, 1972, Goodwin and Drew, 2007; cited from earlier work.
The target of series [11] is T1, CYP2B6dH. Description: Spectral binding. Particulars: for Type of difference spectrum induced: CYP2B6dH and K262R, peak ~388 nm, trough ~420 nm; for ΔAmax (CYP2B6dH): difference spectra, 1 μM P450.
The target of series [12] is T4, K262R (2B6*4). Description: Spectral binding. As to conditions: for ΔAmax (K262R): difference spectra, 1 μM P450; for ΔAmax, K262R compared with wild-type / Higher Ks, K262R compared with CYP2B6dH: spectral binding.
Series [13] deals with T1, CYP2B6dH. Particulars: for Predicted in vivo % activity (CYP2B6dH): remaining efavirenz metabolism relative to no inhibitor; for Predicted inhibition of efavirenz metabolism (CYP2B6dH): in vivo prediction.
The test system of a further series is 2B6*1/*4 genotype. Particulars: individuals with 2B6*1/*4 genotype, single dose; ref Kirchheiner at al., 2003; cited from earlier work.
In series [14] the test system is K262R. As to conditions: bupropion to hydroxybupropion; ref Bumpus et al., 2005; cited from earlier work.
Series [15] deals with T1, CYP2B6dH. As to conditions: ref Bumpus et al., 2006, cited from earlier work.
Series [16] deals with K262R. Particulars: ref Bumpus et al., 2006, cited from earlier work.
The next series has as its system *1/*4 heterozygotes. Particulars: ref Rotger et al., 2007; cited from earlier work.

Where a chain is given by its changes, count along the chain named. Several values for one entry are separate records, joined by “and”; a condition that tells them apart may be missing. Equal entries are not always repeated.

Broadly, the Km is the substrate concentration at which the rate is half of its maximum. For orientation: Cmax means the highest concentration seen after dosing. As usually defined, the Kd is the free concentration of one partner at which half of the binding sites on the other are occupied at equilibrium, for simple one-to-one binding. What is called Ki is the dissociation constant of the complex between target and ligand, obtained from inhibition or displacement.

For `c1ccc(-c2ccc(Cn3ccnc3)cc2)cc1` [1-(4-phenyl)benzylimidazole], the “Lower IC50, K262R compared with CYP2B6dH” value with K262R [1] was ~ 2 fold and 2 fold.
The same measure, in the same setting: as for `O=[N+]([O-])c1ccc(Cc2ccncc2)cc1` [4-(4-nitrobenzyl)pyridine], the figure is ~ 2 fold and 2 fold.
With `c1ccc(-c2ccncc2)cc1` [4-(phenyl)pyridine], the “Lower IC50, K262R compared with CYP2B6dH” value in the series on K262R [1] came out at 10 fold.
Take `COc1ccc2c(C(F)(F)F)cc(=O)oc2c1` [7-MFC, 7-Methoxy-4-(trifluoromethyl) coumarin]: on CYP2B6dH [2], the “kcat for 7-MFC oxidation (CYP2B6dH)” value was 0.0633 s⁻¹. Also, on Q172H/K262R (2B6*6) [3], the “Km higher, Q172H/K262R vs CYP2B6dH or K262R” value is on record as ~ 10 fold. In addition, the “kcat lower, Q172H/K262R vs CYP2B6dH or K262R” value at Q172H/K262R (2B6*6) [3] is reported as greater than 2 fold. In addition, the Km at 5 min on CYP2B6dH [4] is 5.1 µM; on CYP2B6 K262R (2B6*4) it was 5 µM; in [6] it was 49 µM. Also, the “kcat for 7-MFC oxidation (K262R)” value at K262R (2B6*4) [5] was determined as 0.0817 s⁻¹. Besides, the “kcat for 7-MFC oxidation (Q172H/K262R)” value on Q172H/K262R (2B6*6) [7] was 0.0217 s⁻¹.
With `O=C1Nc2c(O)cc(Cl)cc2[C@@](C#CC2CC2)(C(F)(F)F)O1` [8-hydroxyefavirenz], the “Susceptibility of K262R to mechanism-based inactivation” value (from here on “Susceptibility of K262R”) in the series on K262R [8] is listed as “preserved”.
Take `C#C[C@]1(O)CC[C@H]2[C@@H]3CCc4cc(O)ccc4[C@H]3CC[C@@]21C` [17α-ethynylestradiol]: the “Susceptibility of K262R” value in the series on K262R [8] was “refractory”.
As for `COC(=O)[C@H](c1ccccc1Cl)N1CCc2sccc2C1` [Clopidogrel, clopidogrel], the “Predicted in vivo activity (K262R)” value in the series with K262R [9] was 0.27 (7.6) min^−1. In [10], the Cmax was 9300 nM. In addition, on CYP2B6dH [11], the affinity, expressed as Kd, was 160 ± 110 nM; the “Type of difference spectrum induced” value is “type I”; the “ΔAmax (CYP2B6dH)” value was found to be 0.026 ± 0.002. Moreover, on K262R (2B6*4) [12], the Kd worked out at 330 ± 140 nM; the “ΔAmax (K262R)” value was found to be 0.030 ± 0.002; the “ΔAmax, K262R compared with wild-type” value is given as “similar”. The “Increase in Ki, K262R compared with CYP2B6dH” value (from here on “Increase in Ki, K262R”) on K262R (2B6*4) [5] was 4 fold. Also, the “Increase in Ki, K262R” value on K262R (2B6*4) [5] (listed as clopidogrel) is listed as greater than 3 fold. Also, on Q172H/K262R (2B6*6) [7] (listed as clopidogrel), the “Increase in Ki, Q172H/K262R compared with CYP2B6dH” value was > 6 fold and 6 fold. The Ki at Q172H/K262R (2B6*6) [7] was 600 nM and 590 nM and 630 nM.
As for `Clc1ccccc1C(c1ccccc1)(c1ccccc1)n1ccnc1` [Clotrimazole, clotrimazole], the “Predicted in vivo % activity (CYP2B6dH)” value at CYP2B6dH [13] is recorded as 6%. In addition, the Cmax in series [10] is 3700 nM. On K262R (2B6*4) [5], the “Increase in Ki, K262R” value is listed as “similar”.
For `CCC(C)n1ncn(-c2ccc(N3CCN(c4ccc(OCC5COC(Cn6cncn6)(c6ccc(Cl)cc6Cl)O5)cc4)CC3)cc2)c1=O` (stereo not drawn) [Itraconazole, itraconazole], the “Predicted inhibition of efavirenz metabolism (K262R)” value in the series with K262R [9] (in vivo prediction) is listed as 20%. The “Predicted inhibition of efavirenz metabolism (CYP2B6dH)” value at CYP2B6dH [13] was 43%. Also, in [10], the Cmax is 1900 nM. For the same compound, on CYP2B6dH [11], binding was put at a Kd of 70 ± 130 nM, the “Type of difference spectrum induced” value is reported as “type I” and the “ΔAmax (CYP2B6dH)” value was 0.022 ± 0.003. Moreover, on K262R (2B6*4) [12], binding was put at a Kd of 1730 ± 440 nM; the “ΔAmax (K262R)” value came out at 0.021 ± 0.002; the “Higher Ks, K262R compared with CYP2B6dH” value was > 20 fold and ~20 fold; the “ΔAmax, K262R compared with wild-type” value was “similar”. Also, the “Increase in Ki, K262R” value at K262R (2B6*4) [5] is reported as greater than 3 fold.
Consider `S=P(N1CC1)(N1CC1)N1CC1` [N,N′,N″-triethylenethiophosphoramide], for which the “Susceptibility of K262R” value with K262R [8] is on record as “preserved”.
Regarding `O=C(c1ccc(OCCN2CCCCC2)cc1)c1c(-c2ccc(O)cc2)sc2cc(O)ccc12` [Raloxifene, raloxifene], the “Predicted in vivo % activity (CYP2B6dH)” value on CYP2B6dH [13] is “would not alter”. Moreover, the Cmax in series [10] was 3 nM.
Consider `CN[C@H]1CC[C@@H](c2ccc(Cl)c(Cl)c2)c2ccccc21` [Sertraline, sertraline], for which the “Predicted inhibition of efavirenz metabolism (CYP2B6dH)” value on CYP2B6dH [13] is on record as 52%. For the same compound, the Cmax in series [10] was 620 nM. Further, on CYP2B6dH [11], the affinity, expressed as Kd, was 510 ± 160 nM; the “Type of difference spectrum induced” value was “type I”; the “ΔAmax (CYP2B6dH)” value was 0.008 ± 0.0005. Besides, on K262R (2B6*4) [12], the affinity, expressed as Kd, was 2060 ± 610 nM; the “ΔAmax (K262R)” value was determined as 0.02 ± 0.002; the “Higher Ks, K262R compared with CYP2B6dH” value was 4 fold; the “ΔAmax, K262R compared with wild-type” value came to 3 fold. The “Increase in Ki, K262R” value on K262R (2B6*4) [5] is ~ 6 fold and 6 fold. Besides, on Q172H/K262R (2B6*6) [7], the “Increase in Ki, Q172H/K262R compared with CYP2B6dH” value was > 6 fold and > 7 fold; the Ki is 2200 nM and 2160 nM.
As to `Clc1ccccc1CN1CCc2sccc2C1` [Ticlopidine, ticlopidine], in the series on K262R [9], the “Predicted in vivo activity (K262R)” value is listed as 0.47 (13) min^−1. Besides, the Cmax in series [10] was 1600 nM. For the same compound, at CYP2B6dH [11], the “Type of difference spectrum induced” value was “type I” and the “ΔAmax (CYP2B6dH)” value stood at 0.023 ± 0.001. In addition, at K262R (2B6*4) [12], the “ΔAmax (K262R)” value is 0.025 ± 0.001; the “Higher Ks, K262R compared with CYP2B6dH” value was “No significant changes”; the “ΔAmax, K262R compared with wild-type” value is on record as “similar”. The “Increase in Ki, K262R” value on K262R (2B6*4) [5] is recorded as “similar”.
Turning to `CC(C)=CCC/C(C)=C/COc1c2ccoc2cc2oc(=O)ccc12` [bergamottin], in the series on K262R [8], the “Susceptibility of K262R” value is reported as “preserved”.
Consider `CC(NC(C)(C)C)C(=O)c1cccc(Cl)c1` (stereo not drawn) [bupropion], for which the Increased clearance in the series on 2B6*1/*4 genotype is 1.3 fold. For the same compound, the “Increased kcat, K262R compared with CYP2B6dH” value in the series with K262R [14] was greater than 2 fold.
Consider `O=C1Nc2ccc(Cl)cc2[C@@](C#CC2CC2)(C(F)(F)F)O1` [efavirenz], for which the results for the Km at CYP2B6dH [15] (read-out: Km for efavirenz hydroxylation (CYP2B6dH)) and with K262R [16] (read-out: Km for efavirenz hydroxylation (K262R)) were 14.3 µM and 15.9 µM, respectively. The “kcat for efavirenz hydroxylation (CYP2B6dH)” value on CYP2B6dH [15] was 0.0717 s⁻¹. In addition, the “Increased catalytic efficiency, K262R compared with CYP2B6dH” value with K262R [16] (efavirenz to 8-hydroxyefavirenz) is listed as ~ 2 fold. Moreover, the “kcat for efavirenz hydroxylation (K262R)” value in the series on K262R [16] was 0.132 s⁻¹. Moreover, the “Reduced area under plasma concentration (AUC)” value with *1/*4 heterozygotes is reported as 17%. Besides, the “Susceptibility of K262R” value with K262R [8] is given as “refractory”.

Values taken from PMC2649788 (Drug metabolism and disposition: the biological fate of …, 2008).
